Laboratory results taken from patent publication EP1163363B1 (priority 1999, dated 2000).

Columns and labels:
Src kinase = target: T1, Src kinase (Homo sapiens, UniProt P12931); test: Solution phase FRET assay of Src kinase activity (rhodamine labelled SHPS-1 peptide / SHP2-GFP); format: biochemical; conditions: 10 µM staurosporine added to the reaction prior to Src enzyme; 3 units of Src kinase, 2 hours at 37°C
T1 construct: purchased Upstate Biotechnology
Procedure: SHPS-1 peptide labelled with rhodamine is phosphorylated using 3 units of Src kinase (Upstate Biotechnology) in a 40 µl reaction containing 100 µM peptide, 50 mM Tris-HCl pH7.2, 1 mM ATP, 10 mM MgCl2, 10 mM β-mercaptoethanol, 0.1 mg/ml BSA and 0.015%(v/v) Brij 35, over a period of 2 hours at 37°C. Non-phosphorylated control samples are prepared under identical conditions in the absence of the kinase.
SHP2-GFP is diluted to 0.5 µM in assay buffer (50 mM Tris-HCl pH7.2, 10 mM β-mercaptoethanol, 0.5mg/ml BSA, 0.015% Brij 35). 98 µl of this solution is used per assay. Initial readings of the fluorescence of the SHP2-GFP construct are made using 485nm excitation wavelength and 520nm emission wavelength. Rhodamine labelled peptide (2µl of above phosphorylation reactions) is added to the SHP2-GFP solution and formation of FRET followed in real-time by measuring the decrease in fluorescence emission of SHP2-GFP at 520 nm as shown in Figure 13.
Phosphonlation of the peptide is prevented by inhibiting the enzyme, Src, with the potent kinase inhibitor staurosporine. Phosphorylation of the rhodamine labelled SHPS-1 peptide is performed as described above in the presence and absence of 10 µM staurosporine added to the reaction prior to Src enzyme.

[1] = target: T2, Yersinia protein tyrosine phosphatase (YOP) (Yersinia enterocolitica, UniProt P15273); format: biochemical
T2 construct: purchased Upstate Biotechnology
T2 sequence (P15273 whole entry): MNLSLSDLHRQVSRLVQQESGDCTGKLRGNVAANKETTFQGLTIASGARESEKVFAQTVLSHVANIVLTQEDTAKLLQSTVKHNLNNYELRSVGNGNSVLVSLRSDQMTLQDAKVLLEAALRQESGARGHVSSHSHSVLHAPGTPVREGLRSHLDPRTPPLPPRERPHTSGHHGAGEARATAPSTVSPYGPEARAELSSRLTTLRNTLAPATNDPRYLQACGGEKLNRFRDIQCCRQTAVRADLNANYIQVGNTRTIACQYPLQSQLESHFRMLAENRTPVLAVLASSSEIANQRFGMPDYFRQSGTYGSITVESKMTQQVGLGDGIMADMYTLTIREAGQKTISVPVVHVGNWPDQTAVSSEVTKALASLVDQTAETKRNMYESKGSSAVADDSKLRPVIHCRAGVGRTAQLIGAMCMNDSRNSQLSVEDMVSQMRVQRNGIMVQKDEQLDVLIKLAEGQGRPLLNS

T1 sequence (P12931 whole entry): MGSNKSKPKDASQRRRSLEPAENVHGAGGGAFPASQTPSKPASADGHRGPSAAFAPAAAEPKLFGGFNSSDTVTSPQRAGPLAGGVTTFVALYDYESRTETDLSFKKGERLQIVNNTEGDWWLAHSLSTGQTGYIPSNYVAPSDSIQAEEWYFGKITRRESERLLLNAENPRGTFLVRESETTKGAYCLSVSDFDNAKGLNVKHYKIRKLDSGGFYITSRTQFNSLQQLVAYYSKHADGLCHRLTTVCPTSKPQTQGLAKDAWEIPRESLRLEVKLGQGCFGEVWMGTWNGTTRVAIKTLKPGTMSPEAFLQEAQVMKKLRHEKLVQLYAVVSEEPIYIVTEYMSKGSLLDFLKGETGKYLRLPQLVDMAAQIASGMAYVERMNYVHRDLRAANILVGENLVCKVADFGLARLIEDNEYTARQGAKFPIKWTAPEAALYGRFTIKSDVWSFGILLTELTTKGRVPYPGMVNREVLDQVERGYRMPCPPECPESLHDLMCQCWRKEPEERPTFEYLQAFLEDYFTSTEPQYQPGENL

CN[C@@H]1C[C@H]2O[C@@](C)([C@@H]1OC)n1c3ccccc3c3c4c(c5c6ccccc6n2c5c31)C(=O)NC4 [staurosporine]
Inhibition of Src phosphorylation of SHPS-1 peptide (formation of FRET partnership with SHP2-GFP) (Src kinase): fail to form a FRET partnership

[Na+].[Na+].[Na+].[O]=[V]([O-])([O-])[O-] [sodium orthovanadate, Sodium orthovanadate]
IC50 [1]: 0.25 µM
